Data on two compounds can be found in article PMC5012625 (International Journal of Nanomedicine, 2016).

Data set [1] in a line: Pharmacokinetic study in rats. The data set is classed as in vivo. The conditions noted are these: female, Sprague Dawley, rat, plasma.
The nature of data set [2]: Particle size and surface charge by dynamic light scattering. The data set is classed as physicochemical. The conditions noted are these: dynamic light scattering analyzer, Nano ZS, mean ± SD.

Consider `CC[C@H](C)[C@H](NC(=O)[C@H](CCC(=O)O)NC(=O)[C@H](CO)NC(=O)[C@@H](NC(=O)[C@@H](N)CO)C(C)C)C(=O)N[C@@H](CCC(N)=O)C(=O)N[C@@H](CC(C)C)C(=O)N[C@@H](CCSC)C(=O)N[C@@H](Cc1cnc[nH]1)C(=O)N[C@@H](CC(N)=O)C(=O)N[C@@H](CC(C)C)C(=O)NCC(=O)N[C@@H](CCCCN)C(=O)N[C@@H](Cc1cnc[nH]1)C(=O)N[C@@H](CC(C)C)C(=O)N[C@@H](CC(N)=O)C(=O)N[C@@H](CO)C(=O)N[C@@H](CCSC)C(=O)N[C@@H](CCC(=O)O)C(=O)N[C@@H](CCCN=C(N)N)C(=O)N[C@H](C(=O)N[C@@H](CCC(=O)O)C(=O)N[C@@H](Cc1c[nH]c2ccccc12)C(=O)N[C@@H](CC(C)C)C(=O)N[C@@H](CCCN=C(N)N)C(=O)N[C@@H](CCCCN)C(=O)N[C@@H](CCCCN)C(=O)N[C@@H](CC(C)C)C(=O)N[C@@H](CCC(N)=O)C(=O)N[C@@H](CC(=O)O)C(=O)N[C@H](C(=O)N[C@@H](Cc1cnc[nH]1)C(=O)N[C@@H](CC(N)=O)C(=O)N[C@@H](Cc1ccccc1)C(=O)O)C(C)C)C(C)C` [rhPTH (1-34)], for which, in data set [1] (0.1 mg kg^−1), the area under the curve AUC(0-inf) (as a rule, the area under the concentration-time curve extrapolated to infinity) is 0.0448 ng·h/mL; the AUC(0-t) (as a rule, exposure summed from dosing to a finite time, without extrapolation to infinity) is 0.0309 ng·h/mL; the Cmax – broadly, the highest concentration seen after dosing – is 0.0392 ± 0.0198 ng/mL; the Tmax (usually the time at which the peak concentration occurs) is 30 min. Besides, the F rel in data set [1] (0.1 mg/kg) was 1.06 ± 0.85%. In data set [1] (sc, 0.02 mg kg^−1), the total exposure AUC(0-inf) was 0.603 ng·h/mL, the AUC(0-t) is 0.585 ng·h/mL, the Cmax is 0.711 ± 0.0978 ng/mL and the Tmax is 15 min.

Regarding “lysine-linked deoxycholic acid [LysDOCA]”, in data set [2], the Zeta potential was 6.27±1.29.
